System: rabbit skeletal myofibrils (approximately 90% fast fibers)
Experiment: Activation of fast skeletal myofibrils (PUMA coupled-enzyme ATPase assay, AC1.4)
Assay type: biochemical
Conditions: concentration at which the compound increased enzymatic activity by 40%, calcium at pCa25

Row | SMILES | Mean AC1.4 (Table 2) | other results
1 | CC(C)(CNc1nc(-c2cccnc2)no1)c1ccc(F)cc1 [N-(2-(4-fluorophenyl)-2-methylpropyl)-3-(pyridin-3-yl)-1,2,4-oxadiazol-5-amine] |  | Mean AC1.4 (Table 5): C (C=10-20 uM)
2 | Cc1cc(NC(=O)C2(c3ncccc3F)CCC2)nn1-c1ccccc1 [1-(3-fluoropyridin-2-yl)-N-(5-methyl-1-phenyl-1H-pyrazol-3-yl)cyclobutanecarboxamide] |  | Mean AC1.4 (Table 5): D (D=>20 uM)
3 | C[C@H](CNc1nc(-c2cn[nH]c2)ns1)c1ccc(F)cc1 [[(2S)-2-(4-fluorophenyl)propyl](3-pyrazol-4-yl(1,2,4-thiadiazol-5-yl))amine] | B (B=1-10 uM) | 
4 | CC(C)(CNc1nc(-c2ccccn2)ns1)c1ccc(F)cc1 [[2-(4-fluorophenyl)-2-methylpropyl](3-(2-pyridyl)(1,2,4-thiadiazol-5-yl))amine] | B (B=1-10 uM) | 
5 | N#Cc1ccc(-c2nnc(NCC3(c4ncccc4F)CCC3)s2)cc1 [4-(5-((1-(3-fluoropyridin-2-yl)cyclobutyl)methylamino)-1,3,4-thiadiazol-2-yl)benzonitrile] |  | Mean AC1.4 (Table 3): D (D=>20 uM)
6 | COCCNc1nsc(NCC(C)(C)c2ccc(F)cc2)n1 [[2-(4-fluorophenyl)-2-methylpropyl]{3-[(2-methoxyethyl)amino](1,2,4-thiadiazol-5-yl)}amine] | D (D=>20 uM) | 
7 | CC(C)(CNc1nc(CN2CCCC2)ns1)c1ccc(F)cc1 [[2-(4-fluorophenyl)-2-methylpropyl][3-(pyrrolidinylmethyl)(1,2,4-thiadiazol-5-yl)]amine] | D (D=>20 uM) | 
8 | NC(=O)c1cccc(-c2nnc(NCC3(c4ncccc4F)CCC3)s2)c1 [3-(5-((1-(3-fluoropyridin-2-yl)cyclobutyl)methylamino)-1,3,4-thiadiazol-2-yl)benzamide] |  | Mean AC1.4 (Table 3): A (A=<1 uM)
9 | Clc1ccc(Cc2nsc(NCCc3cccc(Cl)c3)n2)cc1 [[2-(3-chlorophenyl)ethyl]{3-[(4-chlorophenyl)methyl](1,2,4-thiadiazol-5-yl)}amine] | D (D=>20 uM) | 
10 | CCOC(=O)CCc1nsc(NCC(C)(C)c2ccc(F)cc2)n1 [ethyl 3-(5-{[2-(4-fluorophenyl)-2-methylpropyl]amino}-1,2,4-thiadiazol-3-yl)propanoate] | B (B=1-10 uM) | 
11 | Cc1csc(CCNc2nc(Cc3ccc(F)cc3)ns2)n1 [{3-[(4-fluorophenyl)methyl](1,2,4-thiadiazol-5-yl)}[2-(4-methyl(1,3-thiazol-2-yl))ethyl]amine] | D (D=>20 uM) | 
12 | Cc1ccc(C#N)cc1-c1nnc(NC[C@]2(c3ncccc3F)C[C@H](F)C2)s1 [3-(5-((3-fluoro-1-(3-fluoropyridin-2-yl)cyclobutyl)methylamino)-1,3,4-thiadiazol-2-yl)-4-methylbenzonitrile] |  | Mean AC1.4 (Table 3): B (B=1-10 uM)
13 | CN1CCC(CNc2nc(-c3cccc(C(N)=O)c3)ns2)(c2ccc(F)cc2)CC1 [3-[5-({[4-(4-fluorophenyl)-1-methyl-4-piperidyl]methyl}amino)-1,2,4-thiadiazol-3-yl]benzamide] | D (D=>20 uM) | 
14 | CC(=O)NCc1nsc(NCC(C)(C)c2ccc(F)cc2)n1 [N-[(5-{[2-(4-fluorophenyl)-2-methylpropyl]amino}-1,2,4-thiadiazol-3-yl)methyl]acetamide] | C (C=10-20 uM) | 
15 | CC(C)(CNc1nc(-c2cccc(O)c2)ns1)c1ccc(F)cc1 [3-(5-{[2-(4-fluorophenyl)-2-methylpropyl]amino}-1,2,4-thiadiazol-3-yl)phenol] | A (A=<1 uM) | 
16 | CC(C)(CNc1nc(CCN2CC[C@@H](O)C2)ns1)c1ccc(F)cc1 [(3R)-1-[2-(5-{[2-(4-fluorophenyl)-2-methylpropyl]amino}(1,2,4-thiadiazol-3-yl))ethyl]pyrrolidin-3-ol] | C (C=10-20 uM) | 
17 | CC(C)(CNc1nc(CCCNC(=O)CO)ns1)c1ccc(F)cc1 [N-[3-(5-{[2-(4-fluorophenyl)-2-methylpropyl]amino}(1,2,4-thiadiazol-3-yl))propyl]-2-hydroxyacetamide] | B (B=1-10 uM) | 
18 | CC(=O)OCC(=O)NCCCc1nsc(NCC(C)(C)c2ccc(F)cc2)n1 [{N-[3-(5-{[2-(4-fluorophenyl)-2-methylpropyl]amino}-1,2,4-thiadiazol-3-yl)propyl]carbamoyl}methyl acetate] | C (C=10-20 uM) | 
19 | Oc1ccc(CCNc2nc(Cc3cccc(O)c3)ns2)cc1 [3-[(5-{[2-(4-hydroxyphenyl)ethyl]amino}-1,2,4-thiadiazol-3-yl)methyl]phenol] | D (D=>20 uM) | 
20 | CC(C)(CNc1nc(CN2CCC(O)CC2)ns1)c1ccc(F)cc1 [1-[(5-{[2-(4-fluorophenyl)-2-methylpropyl]amino}-1,2,4-thiadiazol-3-yl)methyl]piperidin-4-ol] | D (D=>20 uM) | 
21 | N#Cc1cccc(-c2nsc(NCC(=O)C3CCCCN3)n2)c1 (stereo not shown) [3-{5-[(2-oxo-2-piperidylethyl)amino]-1,2,4-thiadiazol-3-yl}benzenecarbonitrile] | D (D=>20 uM) | 
22 | Cc1ccc(Cc2nsc(NCCc3c(Cl)cccc3Cl)n2)cc1 [[2-(2,6-dichlorophenyl)ethyl]{3-[(4-methylphenyl)methyl](1,2,4-thiadiazol-5-yl)}amine] | D (D=>20 uM) | 

Row | SMILES | Mean AC1.4 (Table 2) | other results
23 | N#Cc1cccc(-c2nnc(NCC3(c4ncccc4F)CCC3)s2)c1 [3-(5-((1-(3-fluoropyridin-2-yl)cyclobutyl)methylamino)-1,3,4-thiadiazol-2-yl)benzonitrile] |  | Mean AC1.4 (Table 3): B (B=1-10 uM)
24 | COc1cccnc1C1(CNc2nc3ccc(Cl)cc3s2)CCC1 [6-chloro-N-((1-(3-methoxypyridin-2-yl)cyclobutyl)methyl)benzo[d] thiazol-2-amine] |  | Mean AC1.4 (Table 4): B (B=1-10 uM)
25 | CC(C)(CNc1nc(CN2CCN(C(=O)CO)CC2)ns1)c1ccc(F)cc1 [1-{4-[(5-{[2-(4-fluorophenyl)-2-methylpropyl]amino}(1,2,4-thiadiazol-3-yl))methyl]piperazinyl}-2-hydroxyethan-1-one] | D (D=>20 uM) | 
26 | CC(C)(CNc1nc(-c2ccccc2O)ns1)c1ccc(F)cc1 [2-(5-{[2-(4-fluorophenyl)-2-methylpropyl]amino}-1,2,4-thiadiazol-3-yl)phenol] | B (B=1-10 uM) | 
27 | Cc1ccsc1-c1nnc(NC[C@]2(c3ncccc3F)C[C@@H](F)C2)s1 [N-(((cis)-3-fluoro-1-(3-fluoropyridin-2-yl)cyclobutyl)methyl)-5-(3-methylthiophen-2-yl)-1,3,4-thiadiazol-2-amine] |  | Mean AC1.4 (Table 3): B (B=1-10 uM)
28 | Fc1cccnc1C1(CNc2nnc(-c3cccs3)s2)CCC1 [N-((1-(3-fluoropyridin-2-yl)cyclobutyl)methyl)-5-(thiophen-2-yl)-1,3,4-thiadiazol-2-amine] |  | Mean AC1.4 (Table 3): B (B=1-10 uM)
29 | Cn1c(NC(C)(C)c2ccc(F)cc2)nnc1-c1cc(C(N)=O)ccc1F [4-fluoro-3-(5-(2-(4-fluorophenyl)propan-2-ylamino)-4-methyl-4H-1,2,4-triazol-3-yl)benzamide] |  | Mean AC1.4 (Table 5): D (D=>20 uM)
30 | CN(CC(C)(C)c1ccc(F)cc1)c1nc(Cc2cccc(O)c2)ns1 [3-[(5-{[2-(4-fluorophenyl)-2-methylpropyl]methylamino}-1,2,4-thiadiazol-3-yl)methyl]phenol] | D (D=>20 uM) | 
31 | CC(C)(CNc1nc(-c2ccccc2)ns1)c1ccc(F)cc1 [[2-(4-fluorophenyl)-2-methylpropyl](3-phenyl(1,2,4-thiadiazol-5-yl))amine] | B (B=1-10 uM) | 
32 | N#Cc1cccc(-c2nnc(NC[C@]3(c4ncccc4F)C[C@H](F)C3)s2)c1 [3-(5-(((trans)3-fluoro-1-(3-fluoropyridin-2-yl)cyclobutyl)methylamino)-1,3,4-thiadiazol-2-yl)benzonitrile] |  | Mean AC1.4 (Table 3): B (B=1-10 uM)
33 | Cc1ccc(Cc2nsc(NCCc3ccc(Cl)cc3)n2)cc1 [[2-(4-chlorophenyl)ethyl]{3-[(4-methylphenyl)methyl](1,2,4-thiadiazol-5-yl)}amine] | C (C=10-20 uM) | 
34 | Fc1cccnc1C1(CNc2nsc(-c3ccccc3)n2)CCC1 [N-((1-(3-fluoropyridin-2-yl)cyclobutyl)methyl)-5-phenyl-1,2,4-thiadiazol-3-amine] | D (D=>20 uM) | 
35 | Cc1ccc(F)c(-c2nnc(NC[C@]3(c4ncccc4F)C[C@H](F)C3)s2)c1 [N-((3-fluoro-1-(3-fluoropyridin-2-yl)cyclobutyl)methyl)-5-(2-fluoro-5-methylphenyl)-1,3,4-thiadiazol-2-amine] |  | Mean AC1.4 (Table 3): A (A=<1 uM)
36 | CC(C)(O)c1ccc(F)c(-c2nnc(NC[C@]3(c4ncccc4F)C[C@H](F)C3)s2)c1 [2-(4-fluoro-3-(5-((3-fluoro-1-(3-fluoropyridin-2-yl)cyclobutyl)methylamino)-1,3,4-thiadiazol-2-yl)phenyl)propan-2-ol] |  | Mean AC1.4 (Table 3): B (B=1-10 uM)
37 | NC(=O)c1ccc2nc(NCC3(c4ccccn4)CCC3)sc2c1 [2-((1-(pyridin-2-yl)cyclobutyl)methylamino)benzo[d] thiazole-6-carboxamide] |  | Mean AC1.4 (Table 4): B (B=1-10 uM)
38 | Fc1cccnc1C1(CNc2nnc(C3CCCC3)s2)CCC1 [5-cyclopentyl-N-((1-(3-fluoropyridin-2-yl)cyclobutyl)methyl)-1,3,4-thiadiazol-2-amine] |  | Mean AC1.4 (Table 3): B (B=1-10 uM)
39 | CC(C)(CNc1nc(-c2cccc(C(N)=O)c2)ns1)c1ccc(F)cn1 [3-(5-{[2-(5-fluoro(2-pyridyl))-2-methylpropyl]amino}-1,2,4-thiadiazol-3-yl)benzamide] | B (B=1-10 uM) | 
40 | CC(C)(CNc1nc(-c2cn[nH]c2)ns1)c1ccc(F)cc1 [[2-(4-fluorophenyl)-2-methylpropyl](3-pyrazol-4-yl(1,2,4-thiadiazol-5-yl))amine] | B (B=1-10 uM) | 
41 | COc1cccc(Cc2nsc(NCCc3ccc(F)cc3)n2)c1 [[2-(4-fluorophenyl)ethyl]{3-[(3-methoxyphenyl)methyl](1,2,4-thiadiazol-5-yl)}amine] | B (B=1-10 uM) | 
42 | C[C@H](CNc1nc(-c2ccc(O)nc2)ns1)c1ccc(F)cc1 [5-(5-{[(2S)-2-(4-fluorophenyl)propyl]amino}-1,2,4-thiadiazol-3-yl)pyridin-2-ol] | B (B=1-10 uM) | 
43 | NC(=O)c1cccc2sc(NC[C@]3(c4ncccc4F)C[C@H](F)C3)nc12 |  | Mean AC1.4 (Table 4): D (D=>20 uM)

— patent publication US9278962B2 (Cytokinetics, Inc., priority 2011, dated 2016)
